Where two headings read alike, the source gives them in different places.
Columns and labels:
[1] = tested on: transgenic mice co-expressing VGAT with Channelrhodopsin-2; assay: Mechanical paw withdrawal threshold to von Frey filaments after capsaicin; settings: within 15-20 minutes after capsaicin injection, n=7 mice
Method: For acute and chronic pain models, capsaicin (0.1%, 10 μl, intradermal) was injected into the plantar aspect of the left hindpaw under sedation (1.5% isoflurane <2 min) to prevent stress due to restraining the hindpaw.
Mechanical sensitivity of the hindpaw was assessed by measuring the threshold of withdrawal in response to the application of calibrated von Frey filaments of different bending forces to the plantar aspect of the hindpaw according to the ‘up-down’ method, whereby filaments of different bending forces were pressed against the paw until buckling for a maximum of 3 seconds or a withdrawal reflex.

[2] = tested on: transgenic mice co-expressing VGAT with Channelrhodopsin-2; assay: SI theta power (LFP) after intradermal capsaicin in VGAT-ChR2 mice; format: in vivo, mouse; settings: 15-20 minutes after intradermal injection of capsaicin in the hindpaw, n=5 mice
Excerpt: Thalamic bursts are triggered predominantly by GABAergic drive from the reticular thalamic nucleus (TRN), a thin layer overlaying the thalamus that receives strong input from limbic cortical areas. To selectively induce thalamic bursts, TRNs were optically stimulated in awake, unrestrained transgenic mice co-expressing the vesicular GABA transporter (VGAT) with Channelrhodopsin-2 (ChR2). In these mice, ChR2 expression in the thalamus is restricted to the TRN. Age-matched wild-type (C57 Bl\6J) non-ChR2 expressing mice were also used to control for non-specific optical stimulation effects. The naïve state refers to normal conditions prior to induction of the pain models. A custom-made multi-channel system was used to record extracellularly from putative single-units in ventral posterolateral (VPL) thalamus and local field potential (LFP) in the primary somatosensory cortex (S1) hindlimb area (FIGS. 9A-9B). For a description of the FlexDrive system assembly see www.open-ephys.org/[…]. […] FlexDrives were fixed to the skull using C&B-METABOND® Quick! Adhesive (Parkell). After 3 days postoperatively, tetrodes were lowered incrementally ( 500 μm over 5-7 days) until auditory confirmation of typical neuronal responses as expected in VPL and SI (e.g., increased multiunit firing) evoked by light brushing of the left hindpaw. Tetrode positions were also corroborated by stereotaxic coordinates. […]

[3] = tested on: male Sprague-Dawley rats
[4] = tested on: male Sprague-Dawley rats; assay: Thermal hyperalgesia, paw withdrawal latency (PWL) to radiant heat; format: in vivo, rat
[5] = tested on: male Sprague-Dawley rats; assay: Cortical EEG coherence (3-30 Hz) between S1 and PFC electrodes; format: in vivo, rat
[6] = tested on: VPL neurons; assay: Spontaneous burst firing of VPL thalamic neurons after capsaicin; format: in vivo, mouse; settings: after capsaicin injection, n=17 units, 5 mice
Excerpt: A custom-made multi-channel system was used to record extracellularly from putative single-units in ventral posterolateral (VPL) thalamus and local field potential (LFP) in the primary somatosensory cortex (S1) hindlimb area (FIGS. 9A-9B). For a description of the FlexDrive system assembly see www.open-ephys.org/[…]. […] FlexDrives were fixed to the skull using C&B-METABOND® Quick! Adhesive (Parkell). After 3 days postoperatively, tetrodes were lowered incrementally ( 500 μm over 5-7 days) until auditory confirmation of typical neuronal responses as expected in VPL and SI (e.g., increased multiunit firing) evoked by light brushing of the left hindpaw. Tetrode positions were also corroborated by stereotaxic coordinates. […] Chronic implants were stable over several weeks, allowing longitudinal analysis of neuronal activity with behavioral testing of mechanical sensitivity. […] Sorted spikes were then screened visually and inspected for false-positive or overlapping unitary assignments. Only one electrode per tetrode was used for spike sorting to minimize redundant assignments from the same unit. […] Moreover, isolation of putative unitary spikes also met the criterion of inter-spike interval (ISI)>2 ms (refractory period). […]

[7] = 30 min after capsaicin, n=8 rats
[8] = rats with capsaicin, ibuprofen 30 mg/kg i.p. concomitantly with capsaicin, EEG 30 min after
[9] = rats with capsaicin, ibuprofen 30 mg/kg i.p.
[10] = rats with CCI, d14, 30 min after i.p. pregabalin
[11] = rats with CFA, d2, before / 30 min after i.p. pregabalin

SMILES: COc1cc(CNC(=O)CCCC/C=C/C(C)C)ccc1O [capsaicin]
- paw withdrawal threshold (von Frey) [1]: 1.00 ± 0.37 g
- SI power in the theta band at 3.8-6.2 Hz [2]: 8.15×10^−2±0.13×10^−2 mV^2
- PFC EEG mean power between 3 Hz to 30 Hz [3, 7]: 0.67±0.06 mV^2×10^−5
- cS1 EEG mean power between 3 Hz to 30 Hz [3, 7]: 1.05±0.11 mV^2×10^−5
- iS1 EEG mean power between 3 Hz to 30 Hz [3, 7]: 1.05±0.8 mV^2×10^−5
- PFC EEG mean power between 3 Hz to 30 Hz ([3]; 24 hours after capsaicin): 0.65±0.07 mV^2×10^−5
- cS1 EEG mean power between 3 Hz to 30 Hz ([3]; 24 hours after capsaicin): 0.89±0.12 mV^2×10^−5
- iS1 EEG mean power between 3 Hz to 30 Hz ([3]; 24 hours after capsaicin): 0.90±0.18 mV^2×10^−5
- PFC EEG mean power [3, 8]: 123±16
- cS1 EEG mean power (FIG. 4A) [3, 8]: 128±17
- iS1 EEG mean power [3, 8]: 124±14
- paw withdrawal latency (PWL) [4, 7]: 6.00 ± 0.24 s
- paw withdrawal latency (PWL) ([4]; 24 hour after capsaicin): 9.15 ± 0.26 s
- PWL (FIG. 4B) [4, 9]: 64±3
- cS1-iS1 coherence ([5]; rats with capsaicin or CFA): did not significantly effect
- iS1-PFC coherence ([5]; rats with capsaicin or CFA): did not significantly effect
- coherence between cS1 and PFC (mean 3-30 Hz coherence) ([5]; rats with capsaicin, n=7 rats): 0.61±0.05
- rate of spontaneous burst firing in VPL neurons [6]: 0.64±0.11

SMILES: CC(C)Cc1ccc(C(C)C(=O)O)cc1 (stereo not shown) [ibuprofen]
- PFC EEG mean power [3, 8]: 117±18
- iS1 EEG mean power [3, 8]: 143±35
- PWL (FIG. 4B) [4, 9]: 114±10

SMILES: Cc1cccc(C)c1OCC(C)N (stereo not shown) [mexiletine]
- PFC EEG mean power ([3]; rat, in vivo): 113±6
- adverse EEG signs (diffuse or paroxysmal slow activity associated with drowsiness) ([3]; rat, in vivo): did not manifest adverse EEG signs
- cS1 EEG mean power (FIG. 4A) ([3]; rat, in vivo): 134±18
- iS1 EEG mean power ([3]; rat, in vivo): 13926
- PWL (FIG. 4B) ([4]; rats with CCI, after mexiletine 10 mg/kg i.p.): 119±17
- coherence between cS1 and PFC (mean 3-30 Hz coherence) ([5]; rats with CCI d16, after mexiletine, n=5 rats): 0.50±0.10

SMILES: CC(C)C[C@H](CN)CC(=O)O [pregabalin]
- adverse EEG signs (diffuse or paroxysmal slow activity associated with drowsiness) ([3]; rat, in vivo): did not manifest adverse EEG signs
- PFC EEG mean power [3, 10]: 133±14
- cS1 EEG mean power (FIG. 4A) [3, 10]: 87±12
- iS1 EEG mean power [3, 10]: 151±20
- PFC EEG mean power [3, 11]: 138±20
- cS1 EEG mean power (FIG. 4A) [3, 11]: 209±35
- iS1 EEG mean power [3, 11]: 133±9
- PWL (FIG. 4B) ([4]; rats with CCI, after pregabalin): 119±5
- PWL (FIG. 4B) ([4]; rats with CFA, before / after pregabalin): 132±17
- coherence between cS1 and PFC (mean 3-30 Hz coherence) ([5]; rats with CCI d14, after pregabalin, n=5 rats): 0.61±0.03

Source: US11064940B2, “Methods for detecting and treating pain using brain activity” (Rhode Island Hospital, priority 2016, dated 2021)
